Measured values reported in US20050032724A1 (priority 2001, published 2005).
“Also recorded” adds a separate entry of the source. Where two headings read alike, the source gives them in different places.

What was measured:
[1] = system: human epithelial cervical cancer cell line KB 3-1; type: cell-based
Experimental: (§1) The human epithelial cervical cancer cell line KB 3-1 with two subclones (KB 3-1 (MDR1^+++) and KB 3-1 (MDR1^+++, CYP3A5)) and the bladder cancer cell line RT112, also with subclone (RT112 (MDR1^+, UGT1A1)), were cultured in Dulbecco's Modified Eagle Medium (DMEM) including 3.7 g/l NaHCO3, 4.5 g/l D-Glucose, 1.028 g/l N-Acetyl-L-Alanyl-L-glutamine and supplemented with 10% fetal bovine, 1 mM Na-pyruvate and 1% non-essential amino acids. The human colon cancer cell line LS174T was cultured in Dulbecco's modified Eagle medium containing L-glutamine, pyridoxine hydrochloride and 25 mM Hepes buffer without phenol red, supplemented with 10% fetal bovine, 1 mM Na-pyruvate and 1% non-essential amino acids. All cells were incubated at 37° C. with 5% CO2 in a humidified atmosphere.
(§2) Lower concentrated dilutions were prepared in PBS and cell culture medium.
(§3) Cells were seeded in 96-well culture plates 24 h prior to treatment. With respect to differential growth rates KB 3-1 and RT112 cells were seeded at 700 cells/well, RT112 (MDR1^+, UGT1A1) at 1000 cells/well and KB 3-1 (MDR1^+++) and KB 3-1 (MDR1^+++, CYP3A5) at 1200 cells/well. LS174T were seeded at 1.0×10^4 cells/well. […] Four well were treated with the same drug dilution. Cells were incubated for 3 days at 37° C. in a humidified 5% CO2 atmosphere.
(§4) A commercially available MTS assay system (Promega, Madison, USA) was used to determine growth inhibition and cell death according to the instructions of the manufacturer. Three days after adding the drugs, 20 μl of the combined MTS/PMS solution was added to each well of the 96-well culture plate. The plate was incubated for at least 45 min at 37° C. in a humidified 5% CO2 atmosphere and the absorbance at 492 nm was measured. The absorbance values of untreated control cells on each plate were set as 100% growth and used to calculate the remaining growth of drug treated cells. Untreated cells on the culture plates served as controls for unaffected growth and survival.
(§5) The drug concentration effecting a 50% inhibition of cell growth was defined as the IC50.

[2] = system: human colon cancer cell line LS174T; assay: MTS cytotoxicity assay, growth inhibition, LS174T; type: cell-based; conditions: for IC50 (50% inhibition of cell growth): LS174T, 3 days treatment
Experimental: as §1, §2, §3, §4, §5

[3] = system: bladder cancer cell line RT112; assay: MTS cytotoxicity assay, growth inhibition, RT112; type: cell-based, human; conditions: RT112, 3 days treatment
Experimental: as §1, §2
Cells were seeded in 96-well culture plates 24 h prior to treatment. […]
A commercially available MTS assay system (Promega, Madison, USA) was used to determine growth inhibition and cell death according to the instructions of the manufacturer. […] The plate was incubated for at least 45 min at 37° C. in a humidified 5% CO2 atmosphere and the absorbance at 492 nm was measured. The absorbance values of untreated control cells on each plate were set as 100% growth and used to calculate the remaining growth of drug treated cells. […]

[4] = system: KB 3-1 (MDR1^+++) cells
Experimental: as §1, §2, §3, §4, §5

[5] = system: KB 3-1 (MDR1^+++, CYP3A5) cells
Experimental: as §1, §2, §3, §4, §5

[6] = system: RT112 (MDR1, UGT1A1) cells; conditions: for IC50 (50% inhibition of cell growth): RT112 (MDR1, UGT1A1), 3 days treatment
Experimental: as §1, §2, §3, §4, §5

[7] = Clinical study of peak plasma digoxin levels at steady state by MDR1 3435C>T genotype; type: in vivo, human; conditions: 14 healthy volunteers, oral digoxin, p=0.006 Mann Whitney U test
Description: Furthermore, the influence of the MDR1 genotype on intestinal uptake-related pharmacokinetics of digoxin was investigated in a clinical study at the University Medical Center, Charite in Berlin. Maximal digoxin blood levels (Cmax) at steady state were correlated with the MDR1 3435C>T genotype 14 healthy volunteers after oral application of digoxin. […] (p=0.006, Mann Whitney U test) and reflects the impact of this polymorphism on digoxin pharmacokinetics.

[8] = system: MRP1 mRNA; assay: MRP1 mRNA content in duodenal biopsies before and after rifampicin; type: in vivo, human; conditions: healthy volunteers
[9] = mass balance studies; cited from earlier work
[10] = irinotecan therapy, dose-limiting toxicity; cited from earlier work
[11] = within the first 60 days of treatment, colorectal cancer trials; cited from earlier work

**Q.** For `COc1ccc(CCN(C)CCC[C@](C#N)(c2ccc(OC)c(OC)c2)C(C)C)cc1OC` [R-Verapamil], which “effect of addition of R-Verapamil on CPT-11 and SN-38 sensitivity” value [1] is on record?
**A.** The value was “only marginal effects”.

**Q.** For `CCc1c2c(nc3ccc(O)cc13)-c1cc3c(c(=O)n1C2)COC(=O)[C@]3(O)CC` [SN-38, 7-ethyl-10-hydroxycamptothecin], which “IC50 (50% inhibition of cell growth)” value [2] is on record?
**A.** Its value is 0.005 mg/L.

**Q.** What about the “efficacy relative to CPT-11 (growth inhibition and cell death)” value ([2]; stated for LS174T, RT112 and KB 3-1 together) of the same compound?
**A.** Its value is 1000 fold.

**Q.** And the “IC50 (50% inhibition of cell growth)” value [3]?
**A.** The value was 0.004 mg/L.

**Q.** What about the “IC50 (50% inhibition of cell growth)” value [1] of the same compound?
**A.** The value was 0.025 mg/L.

**Q.** What about the “IC50 with R-Verapamil” value [1] of the same compound?
**A.** The value was 15 ng/m.

**Q.** What about the “IC50 (50% inhibition of cell growth)” value [4] of the same compound?
**A.** Its value is 0.2 mg/L.

**Q.** And the “higher sensitivity after inhibition of MDR1 transport function with R-Verapamil” value [4]?
**A.** The value was 10 fold.

**Q.** And the “increase of IC50 relative to KB 3-1” value [4]?
**A.** Its value is “at least 8 times”.

**Q.** What about the “sensitivity with R-Verapamil” value [4] of the same compound?
**A.** Its value is “as sensitive as KB 3-1 cells”.

**Q.** What about the “IC50 (50% inhibition of cell growth)” value [5] of the same compound?
**A.** Its value is greater than 0.2 mg/L.

**Q.** And the “higher resistance of RT112 (MDR1, UGT1A1) relative to RT112” value [6]?
**A.** Its value is 19 fold.

**Q.** And the “IC50 (50% inhibition of cell growth)” value [6]?
**A.** Its value is 0.075 mg/L.

**Q.** Which “Maximal digoxin blood levels (Cmax) at steady state, homozygous T vs C/C MDR1 3435C>T genotype” value [7] does the source give for `C[C@H]1O[C@@H](O[C@H]2[C@@H](O)C[C@H](O[C@H]3[C@@H](O)C[C@H](O[C@H]4CC[C@@]5(C)[C@H](CC[C@@H]6[C@@H]5C[C@@H](O)[C@]5(C)[C@@H](C7=CC(=O)OC7)CC[C@]65O)C4)O[C@@H]3C)O[C@@H]2C)C[C@H](O)[C@@H]1O` [digoxin] here?
**A.** The value was “statistically significantly different; also recorded: statistically significantly lower”.

**Q.** With `CO[C@H]1/C=C/O[C@@]2(C)Oc3c(C)c(O)c4c(O)c(c(/C=N/N5CCN(C)CC5)c(O)c4c3C2=O)NC(=O)/C(C)=C\C=C\[C@H](C)[C@H](O)[C@@H](C)[C@@H](O)[C@@H](C)[C@H](OC(C)=O)[C@@H]1C` [rifampicin] as the compound, how does the “effect of rifampicin treatment on MRP1 mRNA expression” value [8] read?
**A.** Its value is “no effect”.

**Q.** For irinotecan [CPT-11], which “IC50 (50% inhibition of cell growth)” value [2] is on record?
**A.** The value was 1.5 mg/L.

**Q.** And the “IC50 (50% inhibition of cell growth)” value [3]?
**A.** Its value is 2.5 mg/L.

**Q.** And the “IC50 with R-Verapamil” value ([1]; KB 3-1, 3 days, with R-Verapamil 10 μg/ml)?
**A.** Its value is 4.5 µg/mL.

**Q.** And the “IC50 (50% inhibition of cell growth)” value ([1]; KB 3-1, 3 days, without R-Verapamil)?
**A.** Its value is 5 mg/L.

**Q.** What about the “IC50 with R-Verapamil” value ([4]; KB 3-1 (MDR1+++), 3 days, with R-Verapamil 10 μg/ml) of the same compound?
**A.** Its value is 10 mg/L.

**Q.** And the “IC50 (50% inhibition of cell growth)” value ([4]; KB 3-1 (MDR1+++), 3 days, without R-Verapamil)?
**A.** Its value is 85 mg/L.

**Q.** What about the “IC50 of RT112 (MDR1, UGT1A1) compared to RT112 cells” value ([6]; RT112 (MDR1, UGT1A1) vs RT112, in words) of the same compound?
**A.** Its value is “two-times higher”.

**Q.** What about the “IC50 (50% inhibition of cell growth)” value [6] of the same compound?
**A.** Its value is 4 mg/L.

**Q.** And the “total dose excreted in the feces” value [9]?
**A.** Its value is 64%.

**Q.** What about the “diarrhea, occurrence in patients” value [10] of the same compound?
**A.** The value was “up to 88%”.

**Q.** What about the “increase of irinotecan toxicity-related mortality” value [11] of the same compound?
**A.** Its value is roughly 3 times.
